According to patent US5599548A, “Skin care compositions containing fatty acid amides and retinol or retinyl ester” (priority 1995, dated 1997):
Like-named read-outs stand apart in the source and are kept apart here.

Experiments:
[1] = tested on: TGase I (keratinocyte transglutaminase level); test: Transglutaminase (TGase I) ELISA assay (keratinocyte differentiation); format: cell-based, human; conditions: for activity at 0.1 µM / mean TGase level ± s.d: 72 h, ROH 2.5 × 10^-7 M; for effect on keratinocyte TG1 levels / differentiation, in words: concentrations as in the respective Example
Description: (§1) Human keratinocytes, isolated from neonatal foreskin by trypsin treatment were grown in Dulbecco Modification Eagle (DME) Hams F12 (1:1) medium/10% fetal calf serum in the presence of irradiated 3T3 mouse fibroblasts for establishing dividing keratinocyte colonies. Cells were grown under the above condition until their second passage and kept frozen for future use. […] On day 7, when the cells were 80-90% confluent, they were trypsinized and plated in the serum-free medium for the various experiments.
During the process of terminal differentiation in the epidermis, a 15 nm thick layer of protein, known as the cornified envelope (CE) is formed on the inner surface of the cell periphery. The CE is composed of numerous distinct proteins which have been cross-linked together by the formation of N^ε -(γ-glutamyl) lysine isodipeptide bonds catalyzed by the action of at least two different transglutaminases (TGases) expressed in the epidermis. TGase I is expressed in abundance in the differentiated layers of the epidermis, especially the granular layer, but is absent in the undifferentiated basal epidermis. Thus TGase I is a useful marker of epidermal keratinocyte differentiation with high TGase I levels indicating a more differentiated state. An ELISA based TGase I assay, using a TGase I antibody, was used to assess the state of differentiation of the cultured keratinocytes in the examples that follow.
Keratinocytes (cultured as described above) were plated in 96 well plates at a density of 3,000 cells per well in 200 μl media. After incubation for four days the media was changed to media containing test compounds (six replicates per test). The cells were cultured for a further 72 hours after which time the media was aspirated and the plates stored at -70° C. Plates were removed from the freezer, and the cells washed with PBS. 100 μl sterile water was added and the cells were freeze fractured by freezing at -70° C. then thawing. The cells were incubated for one hour at room temperature (R/T) with PBS/3% BSA (wash buffer, bovine serum albumin), then rinsed with a fresh aliquot of wash buffer. Cells were incubated with 50 μl of primary antibodies monoclonal anti-human transglutaminase (IgG) obtained from Amersham (mouse) diluted 1:300 in wash buffer for one hour, 37° C. then rinsed two times with wash buffer. Cells were then incubated with 50 μl of secondary antibody (Feb fragment, peroxidase conjugated anti-mouse IgG obtaining from Amersham) diluted 1:200 in wash buffer for one hour at 37° C., then rinsed two times with wash buffer. Cells were incubated with substrate solution (4 mg o-phenylene diamine and 3.3 μl 30% H2 O2 in 10 ml 0.1M citrate buffer pH 5.0) for five minutes, R/T, in darkness (under aluminum foil). The reaction was stopped by the addition of 50 μl 4N H2 SO4. The absorbance of samples was read at 492 nm in the plate reader. Out of the six replicates, four were treated with both antibodies, two were treated only with the secondary antibody (i.e., to determine background binding of enzyme conjugated Ab). TGase levels were determined by subtracting background from the readings from each treatment and determining mean ±s.d. for the replicates exposed to both Ab.

Human keratinocytes = test: 3H-Thymidine incorporation (keratinocyte proliferation); format: cell-based; conditions: for effect on keratinocyte proliferation, in words: concentrations as in the respective Example; for activity at 0.001 µM: Table 4D, ROH 2.5 × 10^-8 M, linoleoyl-MEA 10^-9 M; for activity at 0.001 µM / activity at 1 µM: RA; for activity at 1 µM: Table 4C, retinol 2.5 × 10^-8 M, palmitoyl-MEA 10^-6 M
Description: as §1
The incorporation of […] by cultured keratinocytes was used as an assay of keratinocyte proliferation. Thymidine is one of four deoxynucleosides which are the monomeric units of DNA, the universal library of genetic information in the animal kingdom. Prior to cell division of a somatic cell such as a keratinocyte, the complete genome of the cell undergoing cell division is replicated. This involves large scale DNA synthesis by the cell and enables both daughter cells to receive identical copies of the genetic material. When ^3 H-thymidine is included in the culture media of keratinocytes which are synthesizing DNA in preparation for cell division then the labelled nucleoside is incorporated into the newly synthesized DNA. The extent of incorporation of ^3 H-thymidine into a population of cells is proportional to the rate of DNA synthesis by this population of cells and therefore an indication of their cellular proliferation.
Keratinocytes (that were cultured as described above) were plated in 24 well plates at a density of 40,000 cells per well in 1 ml media. After incubation for four days or until the cells were 60-70% confluent, the media was changed. Test compounds were added (in triplicate) to the wells 24 hours after the media change, and four hours later 1μCi^3 H-Thymidine in 50 μl media was added per well. Cells were incubated for a further 24 hours. Media was removed from the cells, 10% ice cold trichloroacetic acid (TCA) added and plates were incubated on ice for 30 minutes. Cells were washed five times with 5% TCA and allowed to dissolve in 500 μl 0.1M NaOH for at least one hour (usually overnight). The preparations were neutralized with 0.1M HCl; 50 μl of the cell preparation was used to determine total protein content. Disintegrations per minute (DPM) from ^3 H labelling of DNA was determined by liquid scintillation counting of […] of the cell preparation. Thymidine incorporation results were expressed as DPM/μg protein.

**Q.** What does the source list for `CC(N)=O` [Acetamide (C2), acetamide]?
**A.** activity at 0.1 µM ([1]; Homo sapiens, Keratinocyte, Table 6B, RA, acetamide 10^-7 M, alone or combined, n = 3, read-out: TGase (TG1) level, % control): 98%; mean TGase level ± s.d ([1]; Table 6B (Effect on Keratinocyte TGase), RA, acetamide 10^-7 M, alone or combined, n = 3): 0.480 ± 0.042; effect on keratinocyte TG1 levels / differentiation, in words [1]: no effect on keratinocyte TG1 levels

**Q.** Which activity at 0.1 µM ([1]; Homo sapiens, Keratinocyte, Table 6A, RA, formamide 10^-7 M, alone or combined, n = 3, read-out: TGase (TG1) level, % control) does the source give for `NC=O` [Formamide (C1), formamide] here?
**A.** The activity at 0.1 µM was 85%.

**Q.** And the “mean TGase level ± s.d” value ([1]; Table 6A (Effect on Keratinocyte TGase), RA, formamide 10^-7 M, alone or combined, n = 3)?
**A.** Its value is 0.413 ± 0.069.

**Q.** What about the “effect on keratinocyte TG1 levels / differentiation, in words” value [1] of the same compound?
**A.** The value was “small inhibitory effect on keratinocyte TG1 levels”.

**Q.** How did the activity at 1 µM ([1]; Homo sapiens, Keratinocyte, Table 5A, RA, retinol 2.5 × 10^-7 M, linoleic acid 10^-6 M, alone or combined, n = 3, read-out: TGase (TG1) level, % control) turn out when `CCCCC/C=C\C/C=C\CCCCCCCC(=O)O` [Linoleic acid (LA), Linoleic acid] was run?
**A.** The activity at 1 µM was over 100%.

**Q.** What about the “mean TGase ± s.d” value ([1]; Table 5A, RA, retinol 2.5 × 10^-7 M, linoleic acid 10^-6 M, alone or combined, n = 3) of the same compound?
**A.** Its value is 0.161 ± 0.061.

**Q.** What about the “effect on keratinocyte TG1 levels / differentiation, in words” value [1] of the same compound?
**A.** The value was “appeared to stimulate TG1”.

**Q.** What does the source list for `CCCCC/C=C\C/C=C\CCCCCCCC(=O)OC` [Methyl linoleate, methyl linoleate]?
**A.** activity at 0.01 µM ([1]; Homo sapiens, Keratinocyte, Table 5B, RA, retinol 2.5 × 10^-8 M, methyl linoleate 10^-8 M, alone or combined, n = 3, read-out: TGase (TG1) level, % control): 67%; mean TGase ± s.d ([1]; Table 5B, RA, retinol 2.5 × 10^-8 M, methyl linoleate 10^-8 M, alone or combined, n = 3): 0.193 ± 0.033; effect on keratinocyte TG1 levels / differentiation, in words [1]: repressed TG1 to the same extent as 2.5×10^-8 M retinol

**Q.** With `CCCCC(=O)N(CCO)CCO` [Pentanoyl-DEA (C5-DEA)] as the compound, how does the activity at 0.1 µM ([1]; Homo sapiens, Keratinocyte, Table 6C, RA, pentanoyl-DEA 10^-7 M, alone or combined, n = 3, read-out: TGase (TG1) level, % control) read?
**A.** Its activity at 0.1 µM is 99%.

**Q.** And the “mean TGase level ± s.d” value ([1]; Table 6C (Effect on Keratinocyte TGase), RA, pentanoyl-DEA 10^-7 M, alone or combined, n = 3)?
**A.** The value was 0.425 ± 0.079.

**Q.** And the “effect on keratinocyte TG1 levels / differentiation, in words” value [1]?
**A.** Its value is “no effect on keratinocyte TG1 levels”.

**Q.** What does the source list for `CCCCCCCCCCCCCCCC(=O)OC/C=C(C)/C=C/C=C(C)/C=C/C1=C(C)CCCC1(C)C` [RP, retinyl palmitate]?
**A.** activity at 0.25 µM (Human keratinocytes; Homo sapiens, Keratinocyte, 24 h, Table 3A, RA 2.5 × 10^-9 M, RP 2.5 × 10^-7 M, linoleoyl-DEA 10^-8 M, alone or combined, n = 3, read-out: thymidine incorporation, % control): 111%; mean Thymidine incorp./μg protein ± s.d (Human keratinocytes; Table 3A, RA 2.5 × 10^-9 M, RP 2.5 × 10^-7 M, linoleoyl-DEA 10^-8 M, alone or combined, n = 3): 1884 ± 64 DPM/μg protein; effect on keratinocyte proliferation, in words (Human keratinocytes): increased keratinocyte thymidine incorporation over the control; activity at 0.25 µM ([1]; Homo sapiens, Keratinocyte, Table 3B, RA, RP 2.5 × 10^-7 M, linoleoyl-DEA 10^-6 M, alone or combined, n = 3, read-out: TGase (TG1) level, % control): 82%; activity at 2.5 µM ([1]; Homo sapiens, Keratinocyte, Table 8A, 2.5 × 10^-6 M, n = 3, read-out: TGase, % control): 95%; activity at 0.25 µM ([1]; Homo sapiens, Keratinocyte, Table 8A, 2.5 × 10^-7 M, n = 3, read-out: TGase, % control): 82%; activity at 0.025 µM ([1]; Homo sapiens, Keratinocyte, Table 8A, 2.5 × 10^-8 M, n = 3, read-out: TGase, % control): 82%; activity at 0.0025 µM ([1]; Homo sapiens, Keratinocyte, Table 8A, 2.5 × 10^-9 M, n = 3, read-out: TGase, % control): 76%; activity at 2.5 µM ([1]; Homo sapiens, Keratinocyte, Table 8B, 2.5 × 10^-6 M, n = 3, read-out: TGase, % control): 52%; activity at 0.00025 µM ([1]; Homo sapiens, Keratinocyte, Table 8B, 2.5 × 10^-10 M, n = 3, read-out: TGase, % control): 108%; mean TGase ± s.d ([1]; Table 3B, RA, RP 2.5 × 10^-7 M, linoleoyl-DEA 10^-6 M, alone or combined, n = 3): 0.177 ± 0.026; mean TGase ± s.d ([1]; Table 8A, 2.5 × 10^-6 M, n = 3): 0.206 ± 0.034; mean TGase ± s.d ([1]; Table 8A, 2.5 × 10^-7 M, n = 3): 0.177 ± 0.026; mean TGase ± s.d ([1]; Table 8A, 2.5 × 10^-8 M, n = 3): 0.177 ± 0.054; mean TGase ± s.d ([1]; Table 8A, 2.5 × 10^-9 M, n = 3): 0.165 ± 0.030; mean TGase ± s.d ([1]; Table 8B, 2.5 × 10^-6 M, n = 3): 0.063 ± 0.019; mean TGase ± s.d ([1]; Table 8B, 2.5 × 10^-10 M, n = 3): 0.132 ± 0.038

**Q.** Which results are given for `CCCCC/C=C\C/C=C\CCCCCCCC(=O)NCCO` [linoleoyl-MEA, linoleoyl-monoethanolamide]?
**A.** activity at 0.001 µM (Human keratinocytes; Homo sapiens, Keratinocyte, 24 h, alone or combined, 24 h, n = 3, read-out: thymidine incorporation, % control): 67%; activity at 0.001 µM (Human keratinocytes; Homo sapiens, Keratinocyte, 24 h, alone or combined, 24 h, normalized to ethanol control, n = 3, read-out: mean Thymidine incorp./μg protein ± s.d): 67 ± 18%; effect on keratinocyte proliferation, in words (Human keratinocytes): inhibitory effect on keratinocyte proliferation

**Q.** `CCCCCCCCCCCCCCCC(=O)NCCO` [palmitoyl-MEA, palmitoyl-monoethanolamide] was tested. Which activity at 1 µM (Human keratinocytes; Homo sapiens, Keratinocyte, 24 h, alone or combined, n = 3, read-out: thymidine incorporation, % control) did it give?
**A.** The activity at 1 µM was 97%.

**Q.** And the activity at 1 µM (Human keratinocytes; Homo sapiens, Keratinocyte, alone or combined, control = 1.000, n = 3, read-out: mean Thymidine incorp./μg protein ± s.d)?
**A.** Its activity at 1 µM is 97.4 ± 8%.

**Q.** What about the “effect on keratinocyte proliferation, in words” value (Human keratinocytes) of the same compound?
**A.** The value was “Neither 10^-8 M palmitoyl-MEA nor 2.5×10^-8 M retinol had an effect on keratinocyte proliferation”.
